The source made the active and inactive calls.

The target of one test is T1, Caspase-3 (Homo sapiens, UniProt P42574).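 Also: Dose-response selectivity test against caspase-3 for candidate inhibitors of sentrin-specific proteases (SENPs).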
T1 sequence (P42574 whole entry): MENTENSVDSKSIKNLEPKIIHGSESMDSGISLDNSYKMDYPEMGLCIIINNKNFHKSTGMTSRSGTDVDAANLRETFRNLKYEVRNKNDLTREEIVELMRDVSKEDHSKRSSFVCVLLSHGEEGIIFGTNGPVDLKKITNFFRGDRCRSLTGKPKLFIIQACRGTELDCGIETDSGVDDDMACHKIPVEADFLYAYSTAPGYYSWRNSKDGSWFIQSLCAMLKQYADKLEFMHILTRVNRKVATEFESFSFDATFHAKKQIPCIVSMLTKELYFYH
Type of test: functional.

The target in test [1] is T2, Apoptotic protease-activating factor 1 (Homo sapiens, UniProt O14727).
T2 sequence (O14727 whole entry): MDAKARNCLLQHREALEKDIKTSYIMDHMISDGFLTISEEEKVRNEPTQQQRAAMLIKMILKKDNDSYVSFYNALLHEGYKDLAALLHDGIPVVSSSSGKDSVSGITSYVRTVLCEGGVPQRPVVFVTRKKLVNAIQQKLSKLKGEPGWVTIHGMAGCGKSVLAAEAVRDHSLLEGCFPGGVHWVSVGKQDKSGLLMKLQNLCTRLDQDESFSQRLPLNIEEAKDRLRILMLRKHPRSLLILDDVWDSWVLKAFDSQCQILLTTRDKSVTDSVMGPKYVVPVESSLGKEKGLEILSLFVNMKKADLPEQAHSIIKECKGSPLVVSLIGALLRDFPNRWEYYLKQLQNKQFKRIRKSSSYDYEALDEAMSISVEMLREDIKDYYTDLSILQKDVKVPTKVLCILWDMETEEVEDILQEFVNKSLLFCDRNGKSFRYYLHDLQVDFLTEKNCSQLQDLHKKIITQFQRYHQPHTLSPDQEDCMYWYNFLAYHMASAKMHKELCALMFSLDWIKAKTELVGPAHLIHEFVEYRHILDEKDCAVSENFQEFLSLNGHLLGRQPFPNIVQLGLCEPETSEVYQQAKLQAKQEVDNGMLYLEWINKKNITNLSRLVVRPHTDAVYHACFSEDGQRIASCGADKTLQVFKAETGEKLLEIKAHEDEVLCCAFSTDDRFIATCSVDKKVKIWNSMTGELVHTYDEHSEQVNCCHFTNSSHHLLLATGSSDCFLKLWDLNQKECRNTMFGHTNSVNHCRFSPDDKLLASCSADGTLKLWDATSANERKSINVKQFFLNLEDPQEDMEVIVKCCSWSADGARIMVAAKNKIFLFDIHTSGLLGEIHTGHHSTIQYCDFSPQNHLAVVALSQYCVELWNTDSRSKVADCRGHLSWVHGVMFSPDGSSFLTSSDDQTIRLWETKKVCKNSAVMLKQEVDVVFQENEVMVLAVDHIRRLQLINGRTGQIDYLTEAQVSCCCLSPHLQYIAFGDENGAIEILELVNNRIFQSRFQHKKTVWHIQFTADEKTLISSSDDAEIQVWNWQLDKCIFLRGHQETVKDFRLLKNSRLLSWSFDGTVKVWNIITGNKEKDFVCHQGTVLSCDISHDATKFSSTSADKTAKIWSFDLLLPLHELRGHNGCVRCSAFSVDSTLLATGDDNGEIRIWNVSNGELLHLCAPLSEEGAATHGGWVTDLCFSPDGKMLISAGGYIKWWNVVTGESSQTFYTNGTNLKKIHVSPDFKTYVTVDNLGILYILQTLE
Type of test: functional.

The target of a further test is T3, Streptokinase A (Streptococcus pyogenes serotype M1, UniProt P10520).
T3 sequence (P10520 whole entry): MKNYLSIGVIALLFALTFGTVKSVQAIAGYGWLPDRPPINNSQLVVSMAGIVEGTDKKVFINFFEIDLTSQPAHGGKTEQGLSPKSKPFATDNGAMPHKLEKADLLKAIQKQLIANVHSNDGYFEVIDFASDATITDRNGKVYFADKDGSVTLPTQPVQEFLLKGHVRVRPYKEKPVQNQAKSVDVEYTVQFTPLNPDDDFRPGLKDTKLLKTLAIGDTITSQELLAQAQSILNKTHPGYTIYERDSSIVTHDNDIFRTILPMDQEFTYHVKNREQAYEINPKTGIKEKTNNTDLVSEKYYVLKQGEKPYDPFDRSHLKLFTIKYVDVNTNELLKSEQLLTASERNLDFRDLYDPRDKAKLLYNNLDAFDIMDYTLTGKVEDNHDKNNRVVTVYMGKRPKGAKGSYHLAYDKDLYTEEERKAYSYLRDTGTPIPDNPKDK
Description: viability-normalized secreted streptokinase activity reduction – plasminogen activation absorbance, OD405, dose response (AID 1914).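 Also: secreted streptokinase activity via plasminogen activation per viability signal from cell pellet.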 Type of test: functional, Streptococcus pyogenes M1 GAS.

Test [2] is described as follows: HepG2 cell cytotoxicity, dose response, cytotoxicity control for non-replicating M. tuberculosis project (AID 489018). Type of test: functional. The note with it: Mycobacterium tuberculosis.
Another test deals with Large T antigen (Simian virus 40, UniProt P03070). Type of test: functional, Betapolyomavirus macacae.
Large T antigen, sequence (P03070 whole entry): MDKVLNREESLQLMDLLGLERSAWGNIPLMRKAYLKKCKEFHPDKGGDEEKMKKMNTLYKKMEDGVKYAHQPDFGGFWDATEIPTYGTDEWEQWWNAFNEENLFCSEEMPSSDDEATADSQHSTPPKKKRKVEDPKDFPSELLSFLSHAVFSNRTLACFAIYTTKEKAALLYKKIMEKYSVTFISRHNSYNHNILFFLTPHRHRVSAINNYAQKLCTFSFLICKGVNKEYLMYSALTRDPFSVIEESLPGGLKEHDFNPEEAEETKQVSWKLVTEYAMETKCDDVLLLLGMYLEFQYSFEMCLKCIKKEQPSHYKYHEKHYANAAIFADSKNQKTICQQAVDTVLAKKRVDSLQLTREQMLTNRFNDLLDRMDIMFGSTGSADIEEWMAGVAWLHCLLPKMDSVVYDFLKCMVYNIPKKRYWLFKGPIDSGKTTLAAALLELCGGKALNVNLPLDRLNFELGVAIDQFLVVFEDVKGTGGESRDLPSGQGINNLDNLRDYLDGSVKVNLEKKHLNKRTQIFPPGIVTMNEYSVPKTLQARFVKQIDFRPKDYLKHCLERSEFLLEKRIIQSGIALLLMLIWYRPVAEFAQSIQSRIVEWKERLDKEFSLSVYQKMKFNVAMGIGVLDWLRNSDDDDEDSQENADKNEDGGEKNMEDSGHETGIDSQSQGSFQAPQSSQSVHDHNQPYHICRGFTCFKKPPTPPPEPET

For the molecule `CC1OC(Nc2cccc3ccccc23)C(O)C(O)C1O` (stereo not drawn), the figures for the IC50 (at Caspase-3; in test [1]) were 9.4 µM (active) and 14.8 µM (active), respectively.
Regarding `O=C1C=C(Nc2ccccc2)c2ccccc2C1=O`, at Streptokinase A, the EC50 was > 150 µM (not active). Besides, the results for the IC50 (on Caspase-3; in test [1]) were 18.6 µM (active) and 2.23 µM (active), respectively.
With `O=C(Nc1ccccc1)c1nnsc1[S+]([O-])c1ccc(Cl)cc1` (stereo not drawn), the EC50 at Streptokinase A is 1.06 µM (active). The CC50 in test [2] was 19.1 µM (active). Further, at Large T antigen, the IC50 was 25 µM (active).

As a reminder, the IC50 is the point on the concentration scale where inhibition reaches its midpoint. The term EC50 denotes the concentration giving half of the maximal effect. What is called CC50 is the concentration at which the toxic effect on the cells reaches its halfway point.

For the origin of these results see ChEMBL document CHEMBL1201862, “PubChem BioAssay data set” (2004).
